Results published in ChEMBL document CHEMBL4507303, “Data for DCP probe TP-004” (2021).

Legend:
[1] = target: Serine/threonine-protein kinase 32A (Homo sapiens) (UniProt Q8WU08); settings: Compound concentration 1000.0 nM
[2] = target: Serine/threonine-protein kinase LATS2 (Homo sapiens) (UniProt Q9NRM7); settings: Compound concentration 1000.0 nM
[3] = target: Serine/threonine-protein kinase PRP4 homolog (Homo sapiens) (UniProt Q13523); settings: Compound concentration 1000.0 nM
[4] = target: Serine/threonine-protein kinase STK11 (Homo sapiens) (UniProt Q15831); settings: Compound concentration 1000.0 nM
[5] = target: Activin receptor type-2B (Homo sapiens) (UniProt Q13705); settings: Compound concentration 1000.0 nM
[6] = target: Ephrin type-B receptor 3 (Homo sapiens) (UniProt P54753); settings: Compound concentration 1000.0 nM
[7] = target: Serine/threonine-protein kinase pim-2 (Homo sapiens) (UniProt Q9P1W9); settings: Compound concentration 1000.0 nM
[8] = target: Serine/threonine-protein kinase N2 (Homo sapiens) (UniProt Q16513); settings: Compound concentration 1000.0 nM
[9] = target: RAC-gamma serine/threonine-protein kinase (Homo sapiens) (UniProt Q9Y243); settings: Compound concentration 1000.0 nM
[10] = target: Tyrosine-protein kinase Blk (Homo sapiens) (UniProt P51451); settings: Compound concentration 1000.0 nM
[11] = target: Receptor tyrosine-protein kinase erbB-3 (Homo sapiens) (UniProt P21860); settings: Compound concentration 1000.0 nM
[12] = target: Death-associated protein kinase 3 (Homo sapiens) (UniProt O43293); settings: Compound concentration 1000.0 nM
[13] = target: Serine/threonine-protein kinase PAK 5 (Homo sapiens) (UniProt Q9P286); settings: Compound concentration 1000.0 nM
[14] = target: Histamine H4 receptor (Homo sapiens) (UniProt Q9H3N8); settings: Compound concentration 10.0 uM
[15] = target: Cyclin-dependent kinase-like 5 (Homo sapiens) (UniProt O76039); settings: Compound concentration 1000.0 nM
[16] = target: Dual specificity protein kinase CLK2 (Homo sapiens) (UniProt P49760); settings: Compound concentration 1000.0 nM
[17] = target: Megakaryocyte-associated tyrosine-protein kinase (Homo sapiens) (UniProt P42679); settings: Compound concentration 1000.0 nM
[18] = target: Uncharacterized serine/threonine-protein kinase SBK3 (Homo sapiens) (UniProt P0C264); settings: Compound concentration 1000.0 nM
[19] = target: Mitogen-activated protein kinase kinase kinase 9 (Homo sapiens) (UniProt P80192); settings: Compound concentration 1000.0 nM
[20] = target: Serine/threonine-protein kinase Sgk2 (Homo sapiens) (UniProt Q9HBY8); settings: Compound concentration 1000.0 nM
[21] = target: D(2) dopamine receptor (Homo sapiens) (UniProt P14416); settings: Compound concentration 10.0 uM
[22] = target: RAC-alpha serine/threonine-protein kinase (Homo sapiens) (UniProt P31749); settings: Compound concentration 1000.0 nM
[23] = target: Calcium/calmodulin-dependent protein kinase type 1B (Homo sapiens) (UniProt Q6P2M8); settings: Compound concentration 1000.0 nM
[24] = target: Calcium/calmodulin-dependent protein kinase type 1D (Homo sapiens) (UniProt Q8IU85); settings: Compound concentration 1000.0 nM
[25] = target: Serine/threonine-protein kinase ICK (Homo sapiens) (UniProt Q9UPZ9); settings: Compound concentration 1000.0 nM
[26] = target: Mast/stem cell growth factor receptor Kit (Homo sapiens) (UniProt P10721); settings: Compound concentration 1000.0 nM
[27] = target: 3-phosphoinositide-dependent protein kinase 1 (Homo sapiens) (UniProt O15530); settings: Compound concentration 1000.0 nM
[28] = target: AP2-associated protein kinase 1 (Homo sapiens) (UniProt Q2M2I8); settings: Compound concentration 1000.0 nM
[29] = target: Protein kinase C eta type (Homo sapiens) (UniProt P24723); settings: Compound concentration 1000.0 nM
[30] = target: Serine/threonine-protein kinase D3 (Homo sapiens) (UniProt O94806); settings: Compound concentration 1000.0 nM
[31] = target: Hepatocyte growth factor receptor (Homo sapiens) (UniProt P08581); settings: Compound concentration 1000.0 nM
[32] = target: Myosin light chain kinase family member 4 (Homo sapiens) (UniProt Q86YV6); settings: Compound concentration 1000.0 nM
[33] = target: Alpha-2C adrenergic receptor (Homo sapiens) (UniProt P18825); settings: Compound concentration 10.0 uM
[34] = target: Tyrosine-protein kinase JAK3 (Homo sapiens) (UniProt P52333); settings: Compound concentration 1000.0 nM
[35] = target: Tyrosine-protein kinase Lyn (Homo sapiens) (UniProt P07948); settings: Compound concentration 1000.0 nM
[36] = target: Dual specificity tyrosine-phosphorylation-regulated kinase 1B (Homo sapiens) (UniProt Q9Y463); settings: Compound concentration 1000.0 nM
[37] = target: Tyrosine-protein kinase Mer (Homo sapiens) (UniProt Q12866); settings: Compound concentration 1000.0 nM
[38] = target: STE20/SPS1-related proline-alanine-rich protein kinase (Homo sapiens) (UniProt Q9UEW8); settings: Compound concentration 1000.0 nM
[39] = target: Cyclin-dependent kinase 4 (Homo sapiens) (UniProt P11802); settings: Compound concentration 1000.0 nM
[40] = target: Serine/threonine-protein kinase MAK (Homo sapiens) (UniProt P20794); settings: Compound concentration 1000.0 nM
[41] = target: Serine/threonine-protein kinase 10 (Homo sapiens) (UniProt O94804); settings: Compound concentration 1000.0 nM
[42] = target: Serine/threonine-protein kinase PAK 1 (Homo sapiens) (UniProt Q13153); settings: Compound concentration 1000.0 nM
[43] = target: Rhodopsin kinase GRK1 (Homo sapiens) (UniProt Q15835); settings: Compound concentration 1000.0 nM
[44] = target: Tyrosine-protein kinase ITK/TSK (Homo sapiens) (UniProt Q08881); settings: Compound concentration 1000.0 nM
[45] = target: RAC-beta serine/threonine-protein kinase (Homo sapiens) (UniProt P31751); settings: Compound concentration 1000.0 nM

Chain of Tyrosine-protein kinase JAK3 (Homo sapiens) (P52333 whole entry): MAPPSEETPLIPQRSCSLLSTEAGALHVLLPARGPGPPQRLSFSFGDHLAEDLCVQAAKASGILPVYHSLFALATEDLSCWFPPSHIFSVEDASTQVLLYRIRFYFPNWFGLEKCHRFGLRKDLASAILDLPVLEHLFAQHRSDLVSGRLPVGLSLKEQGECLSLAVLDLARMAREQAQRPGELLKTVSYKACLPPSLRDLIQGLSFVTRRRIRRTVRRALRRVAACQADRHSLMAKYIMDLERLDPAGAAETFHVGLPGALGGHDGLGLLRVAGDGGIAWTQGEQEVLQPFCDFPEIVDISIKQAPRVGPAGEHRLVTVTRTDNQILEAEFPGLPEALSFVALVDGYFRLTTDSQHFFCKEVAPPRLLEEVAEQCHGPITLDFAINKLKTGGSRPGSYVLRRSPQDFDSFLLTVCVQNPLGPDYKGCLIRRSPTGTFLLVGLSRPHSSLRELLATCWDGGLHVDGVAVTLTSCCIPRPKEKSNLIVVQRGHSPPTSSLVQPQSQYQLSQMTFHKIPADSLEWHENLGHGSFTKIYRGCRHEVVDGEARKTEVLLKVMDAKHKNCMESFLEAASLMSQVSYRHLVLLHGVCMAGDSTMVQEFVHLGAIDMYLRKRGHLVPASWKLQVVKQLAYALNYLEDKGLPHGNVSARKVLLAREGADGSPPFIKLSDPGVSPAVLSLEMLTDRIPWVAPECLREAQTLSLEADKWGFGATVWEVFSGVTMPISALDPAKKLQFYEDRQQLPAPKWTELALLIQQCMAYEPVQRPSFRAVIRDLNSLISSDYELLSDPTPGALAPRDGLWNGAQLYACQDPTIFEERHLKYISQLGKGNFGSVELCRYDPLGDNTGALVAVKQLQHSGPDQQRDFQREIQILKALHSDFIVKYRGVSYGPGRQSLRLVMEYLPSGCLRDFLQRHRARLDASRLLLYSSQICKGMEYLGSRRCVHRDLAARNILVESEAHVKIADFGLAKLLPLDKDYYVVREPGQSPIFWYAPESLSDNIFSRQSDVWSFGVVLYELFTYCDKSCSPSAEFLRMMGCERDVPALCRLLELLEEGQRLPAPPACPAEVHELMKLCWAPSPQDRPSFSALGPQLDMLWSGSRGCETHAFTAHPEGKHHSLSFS
Chain of Dual specificity protein kinase CLK2 (Homo sapiens) (P49760 whole entry, looked up): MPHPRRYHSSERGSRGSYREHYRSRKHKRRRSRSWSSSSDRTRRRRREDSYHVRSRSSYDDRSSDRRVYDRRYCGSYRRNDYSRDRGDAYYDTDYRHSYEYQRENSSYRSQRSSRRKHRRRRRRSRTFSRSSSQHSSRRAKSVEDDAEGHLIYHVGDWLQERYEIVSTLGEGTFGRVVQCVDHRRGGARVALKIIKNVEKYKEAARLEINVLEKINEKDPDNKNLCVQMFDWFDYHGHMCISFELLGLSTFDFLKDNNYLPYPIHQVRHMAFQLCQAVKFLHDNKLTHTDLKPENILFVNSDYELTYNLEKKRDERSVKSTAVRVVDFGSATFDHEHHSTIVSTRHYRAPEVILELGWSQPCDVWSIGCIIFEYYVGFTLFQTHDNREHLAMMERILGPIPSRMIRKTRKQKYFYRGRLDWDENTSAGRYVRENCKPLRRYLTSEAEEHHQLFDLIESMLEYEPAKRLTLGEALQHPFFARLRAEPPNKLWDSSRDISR
Chain of RAC-alpha serine/threonine-protein kinase (Homo sapiens) (P31749 whole entry): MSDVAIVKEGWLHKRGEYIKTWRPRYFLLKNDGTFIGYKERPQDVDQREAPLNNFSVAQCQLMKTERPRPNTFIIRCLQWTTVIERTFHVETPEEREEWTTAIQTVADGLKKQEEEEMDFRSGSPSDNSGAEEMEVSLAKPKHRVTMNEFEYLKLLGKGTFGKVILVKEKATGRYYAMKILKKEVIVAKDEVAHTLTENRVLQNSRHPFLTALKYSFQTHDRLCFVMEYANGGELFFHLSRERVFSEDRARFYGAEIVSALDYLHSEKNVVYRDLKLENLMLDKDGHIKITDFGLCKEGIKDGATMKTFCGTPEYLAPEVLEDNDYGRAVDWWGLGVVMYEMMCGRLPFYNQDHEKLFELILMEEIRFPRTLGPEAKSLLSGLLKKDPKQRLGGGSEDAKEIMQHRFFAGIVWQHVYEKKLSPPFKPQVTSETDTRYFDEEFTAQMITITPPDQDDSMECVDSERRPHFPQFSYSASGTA
Chain of Tyrosine-protein kinase Blk (Homo sapiens) (P51451 2-505 limits assumed): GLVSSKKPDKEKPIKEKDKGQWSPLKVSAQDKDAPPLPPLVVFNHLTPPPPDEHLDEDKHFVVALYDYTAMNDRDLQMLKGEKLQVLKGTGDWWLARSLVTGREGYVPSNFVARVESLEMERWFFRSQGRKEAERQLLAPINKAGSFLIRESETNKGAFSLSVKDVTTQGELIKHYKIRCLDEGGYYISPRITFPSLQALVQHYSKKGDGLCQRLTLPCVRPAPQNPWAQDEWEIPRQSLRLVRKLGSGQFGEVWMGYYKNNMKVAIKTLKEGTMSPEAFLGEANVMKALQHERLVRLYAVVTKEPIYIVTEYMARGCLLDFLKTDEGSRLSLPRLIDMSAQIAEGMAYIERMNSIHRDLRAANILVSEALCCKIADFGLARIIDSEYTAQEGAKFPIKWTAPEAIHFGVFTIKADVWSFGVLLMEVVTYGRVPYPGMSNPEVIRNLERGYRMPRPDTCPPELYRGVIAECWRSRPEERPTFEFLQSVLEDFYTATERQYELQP
Chain of Uncharacterized serine/threonine-protein kinase SBK3 (Homo sapiens) (P0C264 whole entry): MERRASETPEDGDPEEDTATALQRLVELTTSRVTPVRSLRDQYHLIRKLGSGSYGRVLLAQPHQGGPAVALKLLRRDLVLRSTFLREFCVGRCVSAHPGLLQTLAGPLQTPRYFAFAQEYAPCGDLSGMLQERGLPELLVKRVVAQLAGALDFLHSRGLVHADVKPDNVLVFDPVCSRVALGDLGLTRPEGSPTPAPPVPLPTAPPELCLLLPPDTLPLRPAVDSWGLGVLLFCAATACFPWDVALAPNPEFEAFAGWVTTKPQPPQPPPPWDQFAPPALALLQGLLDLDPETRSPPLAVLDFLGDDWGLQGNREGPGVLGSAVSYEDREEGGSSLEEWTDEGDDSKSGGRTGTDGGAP
Chain of Receptor tyrosine-protein kinase erbB-3 (Homo sapiens) (P21860 whole entry): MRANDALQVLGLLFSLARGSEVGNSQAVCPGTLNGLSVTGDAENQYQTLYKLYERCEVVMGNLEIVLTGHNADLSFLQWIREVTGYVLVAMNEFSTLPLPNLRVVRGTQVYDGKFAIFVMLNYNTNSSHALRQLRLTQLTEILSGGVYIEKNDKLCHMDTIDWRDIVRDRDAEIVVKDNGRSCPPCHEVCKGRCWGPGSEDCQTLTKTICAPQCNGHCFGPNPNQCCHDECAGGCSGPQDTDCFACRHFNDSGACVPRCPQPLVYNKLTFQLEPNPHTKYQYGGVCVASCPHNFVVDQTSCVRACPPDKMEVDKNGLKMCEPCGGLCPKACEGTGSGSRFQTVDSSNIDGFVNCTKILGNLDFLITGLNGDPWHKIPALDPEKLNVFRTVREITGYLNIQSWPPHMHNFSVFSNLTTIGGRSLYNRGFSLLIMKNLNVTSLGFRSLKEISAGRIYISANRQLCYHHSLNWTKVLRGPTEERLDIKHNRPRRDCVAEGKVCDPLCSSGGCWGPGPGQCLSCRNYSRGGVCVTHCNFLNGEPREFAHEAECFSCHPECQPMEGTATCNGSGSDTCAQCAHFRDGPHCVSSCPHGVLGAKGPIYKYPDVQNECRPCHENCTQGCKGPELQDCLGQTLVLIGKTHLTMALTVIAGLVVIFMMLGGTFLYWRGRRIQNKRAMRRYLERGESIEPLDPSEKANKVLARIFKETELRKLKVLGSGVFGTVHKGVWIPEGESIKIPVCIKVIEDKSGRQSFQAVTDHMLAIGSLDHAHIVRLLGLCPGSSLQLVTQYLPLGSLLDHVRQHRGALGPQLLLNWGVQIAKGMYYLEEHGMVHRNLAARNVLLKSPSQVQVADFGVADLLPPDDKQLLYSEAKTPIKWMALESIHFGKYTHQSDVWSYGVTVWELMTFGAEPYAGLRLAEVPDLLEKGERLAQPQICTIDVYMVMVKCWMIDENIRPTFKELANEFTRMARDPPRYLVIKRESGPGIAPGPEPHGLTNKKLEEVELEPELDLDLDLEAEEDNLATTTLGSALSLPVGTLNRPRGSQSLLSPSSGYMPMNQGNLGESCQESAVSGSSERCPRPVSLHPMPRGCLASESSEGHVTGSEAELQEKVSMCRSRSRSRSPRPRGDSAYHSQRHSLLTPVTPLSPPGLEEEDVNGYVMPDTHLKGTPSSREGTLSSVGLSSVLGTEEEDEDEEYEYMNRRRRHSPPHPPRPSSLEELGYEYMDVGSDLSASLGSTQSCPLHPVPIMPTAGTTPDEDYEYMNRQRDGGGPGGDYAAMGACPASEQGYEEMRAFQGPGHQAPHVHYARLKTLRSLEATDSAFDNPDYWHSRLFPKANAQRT
Chain of Activin receptor type-2B (Homo sapiens) (Q13705 whole entry): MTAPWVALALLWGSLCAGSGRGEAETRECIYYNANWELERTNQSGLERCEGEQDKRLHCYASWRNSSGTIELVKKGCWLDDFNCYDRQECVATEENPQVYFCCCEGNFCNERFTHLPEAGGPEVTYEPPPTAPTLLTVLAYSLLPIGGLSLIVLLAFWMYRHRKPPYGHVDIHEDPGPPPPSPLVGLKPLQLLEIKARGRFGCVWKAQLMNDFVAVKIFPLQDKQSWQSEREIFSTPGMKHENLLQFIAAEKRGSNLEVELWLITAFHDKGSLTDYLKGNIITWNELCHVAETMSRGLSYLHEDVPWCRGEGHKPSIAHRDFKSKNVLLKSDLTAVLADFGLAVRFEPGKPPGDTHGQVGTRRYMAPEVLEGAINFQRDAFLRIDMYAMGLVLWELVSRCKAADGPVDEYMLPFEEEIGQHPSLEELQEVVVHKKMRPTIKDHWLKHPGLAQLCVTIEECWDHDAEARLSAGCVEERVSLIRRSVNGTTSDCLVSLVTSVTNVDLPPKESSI

With `Cc1nc(N2CC[C@@H](O)C2)ncc1-c1cc(C(F)(F)F)cc2[nH]ncc12` [TP-004] the residual activity [1] was 85%, the residual activity [2] was 26% and the residual activity [3] was 100%. For the same molecule, the residual activity [4] was 100%, the residual activity [5] was 79% and the residual activity [6] was 100%. For the same molecule, the residual activity [7] was 89%, the residual activity [8] was 72% and the residual activity [9] was 77%. It also gave a residual activity [10] of 100%, a residual activity [11] of 100% and a residual activity [12] of 100%. For the same molecule, the residual activity [13] was 99%, the inhibition [14] was 12% and the residual activity [15] was 77%. The residual activity [16] was 100%, the residual activity [17] was 86% and the residual activity [18] was 100%. For the same molecule, the residual activity [19] was 100%, the residual activity [20] was 88% and the inhibition [21] was 12.6%. For the same molecule, the residual activity [22] was 100%, the residual activity [23] was 90% and the residual activity [24] was 100%. It also gave a residual activity [25] of 100%, a residual activity [26] of 67% and a residual activity [27] of 100%. The residual activity [28] was 100%, the residual activity [29] was 94% and the residual activity [30] was 100%. It also gave a residual activity [31] of 100%, a residual activity [32] of 100% and an inhibition [33] of 2.18%. It also gave a residual activity [34] of 77%, a residual activity [35] of 100% and a residual activity [36] of 96%. The residual activity [37] was 100%, the residual activity [38] was 99% and the residual activity [39] was 88%. For the same molecule, the residual activity [40] was 100%, the residual activity [41] was 100% and the residual activity [42] was 100%. It also gave a residual activity [43] of 52%, a residual activity [44] of 64% and a residual activity [45] of 87%.
